According to US10806732B2, “Stable anti-neoplastic pharmaceutical composition comprising temozolomide and method of preparing the composition” (DOUBLE BOND PHARMACEUTICAL AB, priority 2016, dated 2020):

Tests used:
[1] = oral administration; cited from earlier work
[2] = Stability of TMZ in dextran phosphate gel of pH 7.2-7.4 (prior art BY 11838 C1); format: physicochemical
Text: BY 11838 C1 discloses a combined treatment method for malignant brain tumors. The method comprises surgical excision of the tumor tissue followed by application of TMZ comprised by high substituted dextran phosphate gel of pH 7.2-7.4. The dry weight ratio of TMZ/high substituted dextran phosphate in the preparation is 0.03:1.0. The freeze-dried gel is reconstituted by the addition of sterile water and pH adjusted prior to use, then applied to the wound surface. […] In addition, the structure of highly substituted dextran phosphate contains a large number of di- and tri-substituted phosphoric acid groups, which provide additional cross-linking of macromolecules, which reduces the ability to absorb water and limits the amount of TMZ to 30 mg/g in the gel of highly substituted dextran phosphate. The low concentration of TMZ in the composition implies that the volume must be increased to administrate higher dose of the substance, i.e., the prodrug TMZ, and thus also the amount highly substituted dextran phosphates administered is increased. A 2- or 3-fold increase in the amount of highly substituted dextran phosphates can lead to undesirable reactions associated with the duration of the biodegradation process. […]

stability of TMZ (hydrolysis to AIC) [2]: decomposes
SMILES: Cn1nnc2c(C(N)=O)ncn2c1=O [TMZ, 4-methyl-5-oxo-2,3,4,6,8-pentazabicyclo[4.3.0]nona-2,7,9-triene-9-carboxamide]
half-life [1]: 1.8 h
time to peak plasma concentration [1]: 0.7 h
